The values that follow come from US10752675B2, “Compounds for treating the remyelination blockade in diseases associated with the expression of HERV-W envelope protein” (GENEURO S.A., priority 2012, dated 2020).

The test system of assay [1] is MSRV-Env induced EAE in C57BL/6 mice. The experiment in a line: EAE clinical score, Example 3.A (EAE induced with MOG and MSRV-Env). Particulars: treatment from day 12 to day 29: GNbAc1 200 μg once, L-NAME 600 μg IP and SMT 1 mg IP every 4 days, DMF 1 mg daily in drinking water. Format: in vivo. The source says:
Pathogen free female C57BL/6 nice (6-8 weeks old) were purchased from the Charles River laboratories and maintained at the animal facilities for one week before immunization. One day before immunization, all mice have been weighed, and then evaluated on the Rotarod Test. Rotarod:
(§1) Animals were weighed and clinically scored 5 days per week according to the following criteria: 0=no signs; 1=tail paralysis or hyper-reflex of hind limb(s) or unilateral hind limb weakness; 2=bilateral hind limb or forelimb weakness; 3=plus unilateral paralysis or major deficit; 4=complete hind limb or forelimb paralysis; 5=plus partial paralysis or major deficit of opposite limbs; 6=moribund or dead. These were adapted from standard criteria, in order to reflect the more rapid induction of brain and cervical cord lesions with this model.
(§2) All groups of 6 (six) mice have been first injected s.c. in the neck on day 0 then in the dorsal flanks on day 7 and 14; with 200 μg of MOG/mouse+60 μg of MSRV-Env+IFA.
(§3) For Groups G to H, the treatments with GNbAc1, L-NAME, SMT and DMF alone or together with GNbAc1 with the doses indicated below, have been initiated on day 12 post immunization when the progression of EAE clinical symptoms was already observed. GNbAc1 humanized antibody was administered once, but L-Name or SMT was administered every 4 days until termination of the study on day 29. Regarding Groups E and H, attributed for the treatment with DMF, we have previously determined the volume of daily water consumption by each mouse and it has been determined that (in our condition), each mouse consumed around 3.5 ml drinking water per day. Thus, on the basis of this measurement, a dose of 1 mg DMF+0.08% Methocel per mouse were added to 3.5 ml drinking water daily.
350 ng of pertussis toxin (PTX) per animal was injected (i.p.) in all groups on the same day following each immunogen injection, and replicated 2 days later, as usual in EAE protocols in order to facilitate the migration lymphocytes through the blood-brain barrier.

For assay [2] the test system is unchanged. As to the kind of experiment: EAE clinical score, Example 3.C (GNbAC1 and Sodium Fumarate). It is filed as in vivo. Particulars: from day 12: GNbAC1 500 μg IP; Sodium Fumarate 10 mg daily in 3.5 ml drinking water; versus isotype control antibody.
Excerpt: as §1

The subject of assay [3] is rat OPCs. The experiment in a line: 3-nitrotyrosine (3-NT) positive rat OPCs after Env stimulation (immunostaining). The note with it: for Env dependent formation of 3-NT positive OPCs after pre-incubation: 100 μM for 30 min at 37° C. prior to Env stimulation. It is filed as cell-based. On the procedure: Rat oligodendrocyte Precursor Cells (OPCs) were purified as previously described^22. OPCs were either kept in proliferation medium (Sato medium supplemented with 10 ng/ml recombinant human basic fibroblast growth factor and 10 ng/ml recombinant human platelet-derived growth factor-AA; R&D Systems, Wiesbaden-Nordenstadt, Germany), whereas differentiation was initiated by Sato medium supplemented with 0.5% fetal calf serum. Human fetal oligodendrocyte precursor cells (hOPC) and respective media were purchased from 3H Biomedical, Uppsala, Sweden. Recombinant Env was produced and purified by PX-Therapeutics (Grenoble, France) according to QC specifications of GeNeuro (Geneva, Switzerland) that supplied the protein batches. Endotoxin levels were <5 EU/mL as measured by the limulus amebocyte lysate (LAL) test. Env stimulation was carried out using three different approaches using i) recombinant full length Env protein diluted in differentiation medium at 10 ng/ml, 100 ng/ml and 1000 ng/ml, ii) recombinant Env protein coated on cell culture dishes at a surface concentration of 17.53 ng/cm^2 and iii) by seeding OPCs on transfected U343 glioblastoma cells overexpressing Env, respectively. Control stimulation experiments were conducted using the recombinant Env buffer preparation (20 mM histidine, 5% (w/v) sucrose, 0.01% (w/v) polysorbate 20, pH 6.0) at equal dilutions. NO concentration measurements in OPC supernatants were performed using a colorimetric nitric oxide assay kit (Merck-Millipore/Calbiochem, Darmstadt, Germany) and the absorbance was determined at 540 nm using an Anthos plate reader 2001 (Anthos labtec instruments, Salzburg, Austria). OPC morphology assessment was carried out using an anti-04 antibody Merck-Millipore/Chemicon, Darmstadt, Germany) taking into account cell diameter and the degree of process branching. […]

The test system of assay [4] is rat OPCs. As to the kind of experiment: Myelin protein (CNPase, MBP) expression of Env stimulated rat OPCs (immunostaining). Format: cell-based. The note with it: 100 μM in combination with surface bound recombinant Env for three days. As for the experimental part:
(§4) Rat oligodendrocyte Precursor Cells (OPCs) were purified as previously described^22. OPCs were either kept in proliferation medium (Sato medium supplemented with 10 ng/ml recombinant human basic fibroblast growth factor and 10 ng/ml recombinant human platelet-derived growth factor-AA; R&D Systems, Wiesbaden-Nordenstadt, Germany), whereas differentiation was initiated by Sato medium supplemented with 0.5% fetal calf serum. Human fetal oligodendrocyte precursor cells (hOPC) and respective media were purchased from 3H Biomedical, Uppsala, Sweden. Recombinant Env was produced and purified by PX-Therapeutics (Grenoble, France) according to QC specifications of GeNeuro (Geneva, Switzerland) that supplied the protein batches. Endotoxin levels were <5 EU/mL as measured by the limulus amebocyte lysate (LAL) test. […] NO concentration measurements in OPC supernatants were performed using a colorimetric nitric oxide assay kit (Merck-Millipore/Calbiochem, Darmstadt, Germany) and the absorbance was determined at 540 nm using an Anthos plate reader 2001 (Anthos labtec instruments, Salzburg, Austria). […]

Assay [5] concerns MSRV-Env induced EAE in C57BL/6 mice. As to the kind of experiment: Rotarod test, Example 3.A (MSRV-Env induced EAE). Particulars: Example 3.A doses, end of study period. It is filed as in vivo. On the procedure: 9 and 8 days before immunization. Transfer of mice, in their home cages, from the holding room to the experimental room. Mice are habituated to the experimental room for 15 min. During the training period, each mouse was placed on the rotarod at a constant speed (4 rpm) if one mouse was falling, she was back on rotarod, when mice were comfortable on the rotarod, mice were running during 120 sec. All mice were returned to their cage, the speed was increased to 13 rpm and mice were again put on the rotarod for 120 sec. All mice were returned to their cage, the speed was increased to 19 rpm and mice were again put on the rotarod for 120 sec. The experimental-room environment were kept constant between test sessions with respect to temperature, and light intensity.
1 day before each immunization, mice were transferred in their home cages, from the holding room to the experimental room. Mice were habituated to the experimental room for 15 min. Mice then received two trials at 10 increasing speed levels, ranging from 7 to 40 rpm. Individual delays before falling off the rotarod (for the two trials at each speed level) was recorded until 60 sec. Thus, training and performance on the Rotarod system were determined for each animal.
The ROTAROD test results are expressed as kinetics of the mean of individual scores for each group with SEM indicated by bars, for each test day and for each test speed within the discriminating range for neuromotor impairment in present conditions (16 to 29 rpm).
They are calculated for each individual mouse, for each test day and for each speed value, as the relative gain or loss of time on Rotarod (before falling), compared to the first test day at the same speed (D-7, before starting the disease induction in relevant groups). The value is calculated as “Time on Rotarod at dayX”−“Time at Day-7 for the same mouse at the same speed”. Figures illustrate the kinetics for the different groups on the whole study period, for representative discriminative speed values when validated to differentiate ill from healthy animals in our conditions (e.g., too high or too low speed values either made healthy ones fall immediately or ill ones capable to sustain a slow movement).
as §2, §3

Assay [6] concerns rat OPCs. The experiment in a line: iNOS expression in cultured rat OPCs stimulated with recombinant Env (quantitative RT-PCR). It is filed as cell-based. The note with it: 2 h pre-incubation (IRAK1/4 inhibitor I 3200 nM; TRIF inhibitory peptide 50 μM; anti-TLR4 antibody 15 μg/ml), then solid recombinant Env 8 h, GAPDH reference. As for the experimental part:
as §4, with “Recombinant Env was produced and purified by PX-Therapeutics (Grenoble, France) according to QC specifications of GeNeuro (Geneva, Switzerland) that supplied the protein batches.” left out
Transcription Polymerase Chain Reaction RNA purification from cultured cells was performed using the RNeasy procedure (Qiagen, Hilden, Germany). […] Quantitative determination of gene expression levels was performed on a 7900HT sequence detection system (Life Technologies/Applied Biosystems) using Power SybrGreen universal master mix (Life Technologies/Applied Biosystems). […]

In assay [7] the test system is rat OPCs. As to the kind of experiment: NO concentration in OPC supernatants (colorimetric nitric oxide assay). It is filed as cell-based. Particulars: Env stimulated OPCs; data not shown. On the procedure:
as §4

“Also recorded” adds a separate entry of the source. Structures can show the parent of a compound that is named as a salt.

With `COC(=O)/C=C/C(=O)OC` [DMF, dimethyl fumarate], the “EAE clinical score kinetics and recovery” value in assay [1] is on record as “equivalent recovery at the end of the study”.
For `O=C([O-])/C=C/C(=O)[O-].[Na+].[Na+]` [Sodium Fumarate, reference compound], the “EAE clinical score kinetics and endpoint” value in assay [2] is reported as “did not reveal any significant clinical improvement; also recorded: bad outcome at the end of the study; also recorded: no effect”.
Take `COC(=O)[C@H](N)CCCNC(=N)N[N+](=O)[O-]` [D-NAME, D-N^G-nitroarginine methyl ester]: the “Env dependent formation of 3-NT positive OPCs after pre-incubation” value in the assay with rat OPCs [3] is recorded as “not affected; also recorded: could not abolish the Env dependent 3-NT induction”. The “MBP expression in Env stimulated OPCs (rescue of differentiation block)” value in the assay on rat OPCs [4] was “not and not able to rescue myelin expression”.
In the case of `CSC(=N)N` [SMT, S-methyl-isothiourea], in assay [1], the “EAE clinical score kinetics and recovery” value was “irregular recovery; also recorded: lower recovery scores and kinetics than group B”. In assay [5], the “Time on Rotarod at 23 rpm relative to Day -7” value was “improved kinetics and outcome”.
Turning to `O=C(Nc1nc2ccccc2n1CCN1CCOCC1)c1cccc([N+](=O)[O-])c1` [IRAK-1/4 inhibitor I, 1-(2-(4-Morpholinyl)ethyl)-2-(3-nitrobenzoylamino)benzimidazole], the “iNOS expression in presence of Env after pre-incubation with inhibitor” value with rat OPCs [6] is “significantly decreased iNOS expression levels”; in the assay with rat OPCs [6] (listed as IRAK1/4 inhibitor I), “Reduction of iNOS expression”.
As to `CC(=O)NC(C(=O)O)C(C)(C)SN=O` (racemic) [SNAP, S-Nitroso-N-acetyl-DL-penicillamine], the “3-NT positive OPCs, NO donor positive control” value in the assay with rat OPCs [3] (SNAP 100 ng/ml) is recorded as “nitrotyrosinylation of almost all OPCs”.
In the case of `COC(=O)[C@@H](N)CCCNC(=N)N[N+](=O)[O-]` [L-NAME, L-N^G-nitroarginine methyl ester], in the assay with rat OPCs [3], the “Env dependent formation of 3-NT positive OPCs after pre-incubation” value is recorded as “significantly decreased; also recorded: reduced to control levels”. For the same compound, the “EAE clinical score kinetics and recovery” value in assay [1] is “irregular recovery”; in assay [1] (listed as L-Name) it was “lower recovery scores and kinetics than group B”. The “NO production after pre-incubation with L-NAME” value in the assay on rat OPCs [7] is listed as “significantly decreased”. The “MBP expression in Env stimulated OPCs (rescue of differentiation block)” value in the assay with rat OPCs [4] is reported as “rescue MBP expression; also recorded: abolishment of the Env-mediated OPC differentiation block”. For the same compound, in assay [5], the “Time on Rotarod at 26 rpm relative to Day -7” value is “improved kinetics and outcome”. Further, in assay [5], the “Time on Rotarod at 29 rpm relative to Day -7” value is “improved kinetics and outcome”.
